Data reported in patent US6867225B2, “Thiazole or oxazole derivatives which are useful in the treatment of cardiovascular and related diseases” (SmithKline Beecham Corporation, priority 2001, dated 2005).

Tests used:
Experiment in all cases: Transient transfection (transactivation) assay in CV-1 cells, GAL4 chimera, SPAP reporter
Type in all cases: cell-based
hPPAR α = target: T1, hPPAR α (Homo sapiens, UniProt Q07869)
T1 construct: expressed in transfected cells; host or cells: CV-1 cells
T1 sequence (Q07869 239-466 limits assumed): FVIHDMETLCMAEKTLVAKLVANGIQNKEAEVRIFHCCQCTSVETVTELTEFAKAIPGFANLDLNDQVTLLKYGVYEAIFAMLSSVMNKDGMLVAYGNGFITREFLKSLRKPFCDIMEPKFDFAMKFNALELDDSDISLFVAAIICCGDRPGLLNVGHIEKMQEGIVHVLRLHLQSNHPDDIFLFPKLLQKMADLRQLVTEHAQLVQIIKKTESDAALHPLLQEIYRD
Description: (§1) Compounds were screened for functional potency in transient transfection assays in CV-1 cells for their ability to activate the PPAR subtypes (transactivation assay). A previously established chimeric receptor system was utilized to allow comparison of the relative transcriptional activity of the receptor subtypes on the same target gene and to prevent endogenous receptor activation from complicating the interpretation of results. See, for example, Lehmann, J. M.; Moore, L. B.; Smith-Oliver, Oliver T. A.; Wilkison, W. O.; Willson, T. M.; Kliewer, S. A., An antidiabetic thiazolidinedione is a high affinity ligand for peroxisome proliferator-activated receptor gamma (PPAR gamma), J. Biol. Chem., 1995, 270, 12953-6. The ligand binding domains for murine and human PPAR alpha, PPAR gamma, and PPAR delta were each fused to the yeast transcription factor GAL4 DNA binding domain. CV-1 cells were transiently transfected with expression vectors for the respective PPAR chimera along with a reporter construct containing five copies of the GAL4 DNA binding site driving expression of secreted placental alkaline phosphatase (SPAP) and β-galactosidase. After 16 h, the medium was exchanged to DME medium supplemented with 10% delipidated fetal calf serum and the test compound at the appropriate concentration. After an additional 24 h, cell extracts were prepared and assayed for alkaline phosphatase and β-galactosidase activity. Alkaline phosphatase activity was corrected for transfection efficiency using the β-galactosidase activity as an internal standard (see, for example, Kliewer, S. A., et. al. Cell 83, 813-819 (1995)). Rosiglitazone (BRL 49653) was used as a positive control in the hPPAR gamma assay. The positive control in the hPPAR alpha assays was 2-(2-methyl-3-[3-{3-(4-cyclohexylamino)[6-(4-fluorophenylpiperazin-1-yl)][1,3,5]triazin-2-ylamino}propyl]phenylthio)-2-methylpropionic acid. The positive control for PPAR delta assays was 2-{2-methyl-4-[({4-methyl-2-{-{trifluoromethyl)phenyl]-1,3-thiazol-5-yl}methyl)sulfanyl]phenoxy}acetic acid.

hPPAR γ = target: T2, hPPAR γ (Homo sapiens, UniProt P37231)
T2 construct: expressed in transfected cells; host or cells: CV-1 cells
T2 sequence (P37231 238-503 limits assumed): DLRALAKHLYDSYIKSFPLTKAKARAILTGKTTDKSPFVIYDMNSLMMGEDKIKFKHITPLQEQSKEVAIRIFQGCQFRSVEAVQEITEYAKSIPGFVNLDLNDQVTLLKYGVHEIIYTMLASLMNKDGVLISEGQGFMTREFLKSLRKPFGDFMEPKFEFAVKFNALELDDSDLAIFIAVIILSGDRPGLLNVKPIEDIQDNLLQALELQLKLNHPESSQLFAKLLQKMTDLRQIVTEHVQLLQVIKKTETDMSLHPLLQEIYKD
Description: as §1

hPPAR δ = target: T3, hPPAR δ (Homo sapiens, UniProt Q03181)
T3 construct: expressed in transfected cells; host or cells: CV-1 cells
T3 sequence (Q03181 211-439 limits assumed): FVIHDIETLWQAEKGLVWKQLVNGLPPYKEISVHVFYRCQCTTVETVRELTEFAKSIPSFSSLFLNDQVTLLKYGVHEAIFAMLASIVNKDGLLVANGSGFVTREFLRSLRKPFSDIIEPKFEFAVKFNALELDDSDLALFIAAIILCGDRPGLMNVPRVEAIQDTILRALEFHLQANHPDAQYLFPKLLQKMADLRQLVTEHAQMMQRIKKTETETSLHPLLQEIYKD
Description: as §1

Cc1nc(-c2ccc(C(F)(F)F)cc2)sc1C(=O)NC1CCCc2cc(OC(C)(C)C(=O)O)ccc21 (stereo not drawn) [Example 4]
EC50 (hPPAR α): 10 nM
EC50 (hPPAR γ): 2220 nM
EC50 (hPPAR δ): 8600 nM
